Results on 25 compounds are retold here after patent US20090029992A1, “SUBSTITUTED PYRAZOLE COMPOUNDS” (priority 2007, published 2009).

Experiment [1] concerns the target T1, N-terminal His6-tagged recombinant human KDR, residues 790-end (Homo sapiens, UniProt P35968).
T1 construct: recombinant human KDR, residues 790-end; His6 (N); purchased Upstate USA Inc, 706 Forest Street, Charlottesville, Va
In words: KDR kinase inhibition assay (33P-ATP filter assay). The class given is biochemical. The essentials:
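His6-tagged human KDR (residues 790-end, 5-10 mU) with 0.33 mg/mL myelin basic protein in 8 mM MOPS pH 7.0, 0.2 mM EDTA, 10 mM magnesium acetate and [γ-33P]ATP; 40 min at room temperature. Stopped with phosphoric acid, filter-bound 33P counted; inhibition relative to no-inhibitor controls.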

The target in experiment [2] is T2, N-terminal GST-tagged recombinant human Flt3, residues 564-end (Homo sapiens, UniProt P36888).
T2 construct: recombinant human Flt3, residues 564-end; GST (N); purchased Upstate USA Inc, 706 Forest Street, Charlottesville, Va
T2 sequence (P36888 564-993 limits assumed): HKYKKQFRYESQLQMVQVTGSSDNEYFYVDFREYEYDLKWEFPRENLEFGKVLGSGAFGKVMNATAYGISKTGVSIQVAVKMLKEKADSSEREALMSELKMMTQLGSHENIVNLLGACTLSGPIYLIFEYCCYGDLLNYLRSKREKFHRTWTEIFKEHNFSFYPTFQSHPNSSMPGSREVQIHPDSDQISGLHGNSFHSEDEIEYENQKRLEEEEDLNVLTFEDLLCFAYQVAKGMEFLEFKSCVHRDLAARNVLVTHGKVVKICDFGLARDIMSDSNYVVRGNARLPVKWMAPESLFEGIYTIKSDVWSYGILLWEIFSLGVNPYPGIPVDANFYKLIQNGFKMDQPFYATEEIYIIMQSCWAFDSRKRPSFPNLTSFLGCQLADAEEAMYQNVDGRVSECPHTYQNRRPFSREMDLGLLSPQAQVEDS
Briefly: Flt3 kinase inhibition assay (33P-ATP filter assay). The class given is biochemical. The method, boiled down:
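Serial compound dilutions incubated 40 min at room temperature with 5-10 mU Flt3 kinase, 50 μM peptide substrate and [γ-33P]ATP/10 mM magnesium acetate, pH 7.0. Phosphoric acid stop, filter capture and scintillation counting; activity compared with uninhibited reactions.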

[3] abbreviates: group with IC50 greater than 100 nM.

Where only a bound is given, the exact number is not on record here.

T1 sequence (P35968 790-1356 limits assumed): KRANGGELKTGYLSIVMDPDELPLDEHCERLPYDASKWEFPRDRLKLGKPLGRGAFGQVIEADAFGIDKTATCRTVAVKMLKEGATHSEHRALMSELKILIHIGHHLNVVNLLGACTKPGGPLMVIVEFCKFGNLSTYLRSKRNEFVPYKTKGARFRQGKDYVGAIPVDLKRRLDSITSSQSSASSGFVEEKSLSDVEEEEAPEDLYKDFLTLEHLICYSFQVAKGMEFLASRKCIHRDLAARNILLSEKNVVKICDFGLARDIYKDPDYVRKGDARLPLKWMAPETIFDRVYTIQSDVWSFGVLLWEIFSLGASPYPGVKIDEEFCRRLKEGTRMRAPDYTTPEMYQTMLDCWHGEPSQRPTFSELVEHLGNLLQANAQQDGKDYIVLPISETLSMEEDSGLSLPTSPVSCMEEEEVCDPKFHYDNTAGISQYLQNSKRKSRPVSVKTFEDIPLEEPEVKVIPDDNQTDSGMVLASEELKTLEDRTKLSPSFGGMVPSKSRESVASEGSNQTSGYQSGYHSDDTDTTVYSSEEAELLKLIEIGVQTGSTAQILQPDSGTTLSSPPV

For `COCCN(C)c1cc(Nc2cc(C)[nH]n2)nc(-c2ccccc2C(F)(F)F)n1` [Example 126, N^4-(2-methoxyethyl)-N^4-methyl-N^6-(5-methyl-1H-pyrazol-3-yl)-2-(2-(trifluoromethyl)phenyl)pyrimidine-4,6-diamine], the IC50 (in general, the concentration needed to halve the response being measured) is no more than 1000 nM in experiment [1] (setting [3]) and no more than 100 nM in experiment [2] (40 minutes at room temperature).
Take `Cc1cc(Nc2cc(N3CCN(C)CC3)nc(-c3ccc(C(F)(F)F)cc3)n2)n[nH]1` [Compound 100]: the IC50 in experiment [2] (40 minutes at room temperature) was no more than 100 nM.
Regarding `Cc1cc(Nc2cc(N(C)CCN(C)C)nc(-c3ccc4c(c3)OCO4)n2)n[nH]1` [Example 146, 2-(benzo[d][1,3]dioxol-5-yl)-N^4-(2-(dimethylamino)ethyl)-N^4-methyl-N^6-(5-methyl-1H-pyrazol-3-yl)pyrimidine-4,6-diamine], the IC50 in experiment [1] (setting [3]) was no more than 1000 nM; in experiment [2] (40 minutes at room temperature) it was no more than 100 nM.
On the same counts, the results for `COCCN(C)c1cc(Nc2cc(C)[nH]n2)nc(-c2cccc3c2OCCO3)n1` [Example 150, 2-(2,3-dihydrobenzo[b][1,4]dioxin-5-yl)-N^4-(2-methoxyethyl)-N^4-methyl-N^6-(5-methyl-1H-pyrazol-3-yl)pyrimidine-4,6-diamine] are no more than 1000 nM and no more than 100 nM.
For `Cc1cc(Nc2cc(NC3CCOCC3)nc(-c3cccc(C(F)(F)F)c3)n2)n[nH]1` [Compound 80, N^4-(5-methyl-1H-pyrazol-3-yl)-N^6-(tetrahydro-2H-pyran-4-yl)-2-(3-(trifluoromethyl)phenyl)pyrimidine-4,6-diamine] the same measures were no more than 1000 nM and no more than 100 nM.
Take `Cc1cc(Nc2cc(N(C)CCN(C)C)nc(-c3cccc(N(C)C)c3)n2)n[nH]1` [Compound 107]: the concentration for half-maximal inhibition (IC50) in experiment [1] (40 minutes at room temperature) and in experiment [2] (40 minutes at room temperature) was no more than 100 nM throughout.
Take `Cc1cc(Nc2cc(N(C)CCN(C)C)nc(-c3ccc(C(C)(C)C)cc3)n2)n[nH]1` [Compound 103, 2-(4-tert-butylphenyl)-N^4-(2-(dimethylamino)ethyl)-N^4-methyl-N^6-(5-methyl-1H-pyrazol-3-yl)pyrimidine-4,6-diamine]: the IC50 in experiment [1] (setting [3]) was no more than 1000 nM; in experiment [2] (40 minutes at room temperature), no more than 100 nM.
Consider `Cc1cc(Nc2cc(NC3CCOCC3)nc(-c3ccccc3C(F)(F)F)n2)n[nH]1` [Compound 81, N^4-(5-methyl-1H-pyrazol-3-yl)-N^6-(tetrahydro-2H-pyran-4-yl)-2-(2-(trifluoromethyl)phenyl)pyrimidine-4,6-diamine], for which the values for the IC50 in experiment [1] (setting [3]) and in experiment [2] (40 minutes at room temperature) were no more than 1000 nM and no more than 100 nM, respectively.
With `Cc1cc(Nc2cc(N3CCN(C)CC3)nc(-c3ccccc3C(F)(F)F)n2)n[nH]1` [Compound 102, N-(5-methyl-1H-pyrazol-3-yl)-6-(4-methylpiperazin-1-yl)-2-(2-(trifluoromethyl)phenyl)pyrimidin-4-amine], the IC50 in experiment [1] (40 minutes at room temperature) and in experiment [2] (40 minutes at room temperature) was no more than 100 nM each time.
On to `Cc1cc(Nc2cc(NC3CCOCC3)nc(-c3ccc(C(F)(F)F)cc3)n2)n[nH]1` [Compound 79, N^4-(5-methyl-1H-pyrazol-3-yl)-N^6-(tetrahydro-2H-pyran-4-yl)-2-(4-(trifluoromethyl)phenyl)pyrimidine-4,6-diamine], for which the IC50 in experiment [2] (40 minutes at room temperature) was no more than 100 nM.
For `Cc1cc(Nc2cc(N3CCN(C)CC3)nc(-c3cc(F)cc(Cl)c3)n2)n[nH]1` [Compound 97], the IC50 is no more than 1000 nM in experiment [1] (setting [3]) and no more than 100 nM in experiment [2] (40 minutes at room temperature).
For the compound `COCCN(C)c1cc(Nc2cc(C)[nH]n2)nc(-c2cccc(OC)c2)n1` [Compound 68, N^4-(2-methoxyethyl)-2-(3-methoxyphenyl)-N^4-methyl-N^6-(5-methyl-1H-pyrazol-3-yl)pyrimidine-4,6-diamine], the IC50 in experiment [1] (setting [3]) is no more than 1000 nM; in experiment [2] (40 minutes at room temperature), no more than 100 nM.
For `Cc1cc(Nc2cc(NC3CCOCC3)nc(-c3cccc4ccccc34)n2)n[nH]1` [Example 127, N^4-(5-methyl-1H-pyrazol-3-yl)-2-(naphthalen-1-yl)-N^6-(tetrahydro-2H-pyran-4-yl)pyrimidine-4,6-diamine] the same measures were no more than 1000 nM and no more than 100 nM.
For `Cc1cc(Nc2cc(N(C)CCN(C)C)nc(-c3cccc(C(F)(F)F)c3)n2)n[nH]1` [Compound 113, N^4-(2-(dimethylamino)ethyl)-N^4-methyl-N^6-(5-methyl-1H-pyrazol-3-yl)-2-(3-(trifluoromethyl)phenyl)pyrimidine-4,6-diamine] the same measures were no more than 1000 nM and no more than 100 nM.
As for `COCCN(C)c1cc(Nc2cc(C)[nH]n2)nc(-c2cccc(C(F)(F)F)c2)n1` [Compound 125, N^4-(2-methoxyethyl)-N^4-methyl-N^6-(5-methyl-1H-pyrazol-3-yl)-2-(3-(trifluoromethyl)phenyl)pyrimidine-4,6-diamine], the IC50 in experiment [1] (setting [3]) and in experiment [2] (setting [3]) was no more than 1000 nM each time.
Turning to `Cc1cc(Nc2cc(N3CCN(C)CC3)nc(-c3cccc4c3OCCO4)n2)n[nH]1` [Example 136, 2-(2,3-dihydrobenzo[b][1,4]dioxin-5-yl)-N-(5-methyl-1H-pyrazol-3-yl)-6-(4-methylpiperazin-1-yl)pyrimidin-4-amine], the IC50 is no more than 1000 nM in experiment [1] (setting [3]) and no more than 100 nM in experiment [2] (40 minutes at room temperature).
On to `COCCN(C)c1cc(Nc2cc(C)[nH]n2)nc(-c2ccc3ccccc3c2)n1` [Example 149, N^4-(2-methoxyethyl)-N^4-methyl-N^6-(5-methyl-1H-pyrazol-3-yl)-2-(naphthalen-2-yl)pyrimidine-4,6-diamine], for which the figures for the IC50 in experiment [1] (setting [3]) and in experiment [2] (40 minutes at room temperature) were no more than 1000 nM and no more than 100 nM, respectively.
On the same counts, the results for `Cc1cc(Nc2cc(N3CCN(C)CC3)nc(-c3ccc(-c4ccccc4)cc3)n2)n[nH]1` [Example 157, 2-(biphenyl-4-yl)-N-(5-methyl-1H-pyrazol-3-yl)-6-(4-methylpiperazin-1-yl)pyrimidin-4-amine] are no more than 1000 nM and no more than 100 nM.
On the same counts, the results for `COCCN(C)c1cc(Nc2cc(C)[nH]n2)nc(-c2ccc(OC)cc2)n1` [Compound 67, N^4-(2-methoxyethyl)-2-(4-methoxyphenyl)-N^4-methyl-N^6-(5-methyl-1H-pyrazol-3-yl)pyrimidine-4,6-diamine] are no more than 1000 nM and no more than 100 nM.
On the same counts, the results for `COCCN(C)c1cc(Nc2cc(C)[nH]n2)nc(-c2ccc(N(C)C)cc2)n1` [Compound 118, 2-(4-(dimethylamino)phenyl)-N^4-(2-methoxyethyl)-N^4-methyl-N^6-(5-methyl-1H-pyrazol-3-yl)pyrimidine-4,6-diamine] are no more than 1000 nM and no more than 100 nM.
On to `COCCN(C)c1cc(Nc2cc(C)[nH]n2)nc(-c2ccccc2Cl)n1` [Compound 63], for which the IC50 in experiment [1] (setting [3]) was no more than 1000 nM; in experiment [2] (40 minutes at room temperature), no more than 100 nM.
For `Cc1cc(Nc2cc(N(C)CCN(C)C)nc(-c3ccc4ccccc4c3)n2)n[nH]1` [Example 142, N^4-(2-(dimethylamino)ethyl)-N^4-methyl-N^6-(5-methyl-1H-pyrazol-3-yl)-2-(naphthalen-2-yl)pyrimidine-4,6-diamine] the same measures were no more than 1000 nM and no more than 100 nM.
With `COCCN(C)c1cc(Nc2cc(C)[nH]n2)nc(-c2cccc3ccccc23)n1` [Example 148, N^4-(2-methoxyethyl)-N^4-methyl-N^6-(5-methyl-1H-pyrazol-3-yl)-2-(naphthalen-1-yl)pyrimidine-4,6-diamine], the results for the IC50 in experiment [1] (setting [3]) and in experiment [2] (40 minutes at room temperature) were no more than 1000 nM and no more than 100 nM, respectively.
On the same counts, the results for `COCCN(C)c1cc(Nc2cc(C)[nH]n2)nc(-c2cccc(C)c2)n1` [Compound 65, N^4-(2-methoxyethyl)-N^4-methyl-N^6-(5-methyl-1H-pyrazol-3-yl)-2-m-tolylpyrimidine-4,6-diamine] are no more than 1000 nM and no more than 100 nM.
In the case of `Cc1cc(Nc2cc(NC3CCOCC3)nc(-c3ccc(C(C)(C)C)cc3)n2)n[nH]1` [Compound 70, 2-(4-tert-butylphenyl)-N^4-(5-methyl-1H-pyrazol-3-yl)-N^6-(tetrahydro-2H-pyran-4-yl)pyrimidine-4,6-diamine], the IC50 in experiment [1] (setting [3]) is no more than 1000 nM; in experiment [2] (40 minutes at room temperature), no more than 100 nM.
